Results published in patent US20240208954A1, “OXADIAZOLE COMPOUND, PREPARATION METHOD THEREFOR, PHARMACEUTICAL COMPOSITION AND USE THEREOF” (SHANGHAI INSTITUTE OF MATERIA MEDICA, CHINESE ACADEMY OF …, priority 2020, published 2024).
“Also recorded” adds a separate entry of the source.

Assays:
S1P2 = S1P2 (Homo sapiens, UniProt O95136); assay: Subtype selectivity study, method of Experimental Example 1; assay type: cell-based
Description: (§1) Experimental method: CHO-K1/Ga15/EDG1 cells stably expressing EDG1 receptor were cultured in a 10 cm culture dish in a 37° C./5% CO2incubator, and digested when the confluence rate reached 80%-85%. The cells in collected cell suspension were inoculated into 384 microtiter plates at appropriate density, and then placed in a 37° C./5% CO2 incubator and continue to incubate for at least 18 hours before using for experiments. After 18-20 hours, the cell culture plat was taken out and added with dye working solution, and then the plate was placed in a 37° C./5% CO2 incubator for 1 hour, and finally equilibrated at room temperature for 15 minutes. Positive agonist working solution was added, and RFU values were detected and recorded. The 384 microplates, cell plates and tip box with positive agonist working solution were placed into FLIPRTM TETRA and the agonist mode assay program was run with an overall assay time of 120 seconds. The positive agonist working fluid was added to the cell culture plate at the 21st second. 384 microplate, cell plate and gun head box containing the positive antagonist working fluid were put into the FLIPRTM TETRA. The antagonistic mode detection program, the overall detection time of the instrument was 120 seconds, and positive antagonist working solution was added to the cell culture plate at the 21st second. Data processing: Raw data were obtained via ScreenWorks (version 3.1) and saved as *FMD files on the […] computer network system. Data were collected and analyzed using Excel and GraphPad Prism 6 software programs. […] The four-parameter equation was as follows: y=Bottom+(Top-Bottom)/(1+10^((LogEC50/IC50-X)*HillSlope)), wherein X is the Log value of the concentration and Y was the inhibition rate. The S1P receptor selectivity was tested for different subtypes using the method described in Experimental Example 1.

S1P4 = molecular target: T1, S1P4 (Homo sapiens, UniProt O95977); assay: as above; assay type: cell-based
T1 sequence (O95977 1-384): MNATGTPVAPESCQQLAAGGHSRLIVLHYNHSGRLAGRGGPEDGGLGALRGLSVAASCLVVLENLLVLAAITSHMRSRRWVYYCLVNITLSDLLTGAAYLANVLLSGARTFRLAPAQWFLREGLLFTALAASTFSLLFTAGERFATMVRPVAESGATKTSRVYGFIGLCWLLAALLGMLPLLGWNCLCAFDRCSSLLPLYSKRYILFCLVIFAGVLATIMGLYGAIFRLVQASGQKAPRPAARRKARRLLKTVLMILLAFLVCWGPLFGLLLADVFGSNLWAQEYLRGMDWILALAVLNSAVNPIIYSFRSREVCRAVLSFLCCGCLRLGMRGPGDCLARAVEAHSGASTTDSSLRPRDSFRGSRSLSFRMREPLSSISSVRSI
Description: as §1

S1P5 = S1P5 (Homo sapiens, UniProt Q9H228); assay: as above; assay type: cell-based
S1P5, sequence (Q9H228 whole entry, species assumed): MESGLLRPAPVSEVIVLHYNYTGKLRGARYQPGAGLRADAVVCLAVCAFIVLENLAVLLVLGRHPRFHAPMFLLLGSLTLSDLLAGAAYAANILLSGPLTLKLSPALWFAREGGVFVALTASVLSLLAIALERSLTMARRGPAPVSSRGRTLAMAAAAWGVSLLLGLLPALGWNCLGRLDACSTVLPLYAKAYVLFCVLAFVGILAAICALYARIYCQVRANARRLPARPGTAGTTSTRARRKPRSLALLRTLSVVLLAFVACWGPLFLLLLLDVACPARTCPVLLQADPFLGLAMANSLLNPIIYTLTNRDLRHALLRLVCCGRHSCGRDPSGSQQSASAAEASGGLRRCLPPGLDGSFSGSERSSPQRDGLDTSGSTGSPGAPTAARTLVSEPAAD
Description: as §1

[1] = test system: MCD-HFD induced NASH model; assay: Pharmacological activity test in MCD-HFD induced NASH model; assay type: in vivo, C57BL/6 mice
Description: Male C57BL/6 mice were fed with MCD-HFD diet to induce the NASH model, and 4 weeks after modeling, the mice were randomly divided into […]: normal diet control group (Control, n=9), model control group (Model, n=10), positive compound BAF312 group (0.3 mg/kg, n=10), low dose group (0.3 mg/kg, n=10), medium dose group (3 mg/kg, n=10), and high dose group (10 mg/kg, n=10), administered by gavage in a volume of 5 mL/kg once a day. The animals were monitored for food intake and body weight during administration; 4 weeks after administration, the mice were sacrificed by dislocation after blood was taken via the posterior ophthalmic plexus, livers and spleens were weighed, part the liver was fixed in 4% paraformaldehyde, and all tissues and serum were stored at −80° C.

[2] = high-dose group (10 mg/kg), gavage once a day, 4 weeks

S1P2, sequence (O95136 whole entry, species assumed): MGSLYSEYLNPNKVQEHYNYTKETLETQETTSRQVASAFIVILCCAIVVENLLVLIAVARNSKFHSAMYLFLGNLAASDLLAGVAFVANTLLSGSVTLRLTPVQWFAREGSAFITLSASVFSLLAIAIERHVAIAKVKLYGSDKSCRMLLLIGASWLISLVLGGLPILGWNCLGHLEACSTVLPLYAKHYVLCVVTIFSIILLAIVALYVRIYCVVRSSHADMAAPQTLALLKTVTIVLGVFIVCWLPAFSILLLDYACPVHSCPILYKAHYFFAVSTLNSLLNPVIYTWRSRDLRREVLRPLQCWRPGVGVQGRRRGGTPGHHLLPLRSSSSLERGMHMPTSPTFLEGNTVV

SMILES: CC(C)Oc1ccc(-c2nc(-c3ccc(CN4CC(C(=O)O)C4)c4ccccc34)no2)cc1C#N.Cl [Compound A1, 1-((4-(5-(3-cyano-4-isopropoxyphenyl)-1,2,4-oxadiazol-3-yl)naphthalen-1-yl)methyl) azetidine-3-carboxylic acid hydrochloric acid]
- EC50 (S1P2): > 10 µM
- EC50 (S1P4): > 10 µM
- EC50 (S1P5): 0.12 µM
- hepatic lipid accumulation as well as inflammatory infiltration ([1]; FIG. 10 legend: at high/medium/low doses): alleviated
- hepatic lipid accumulation and inflammatory infiltration ([1]; H&E-stained liver sections, high-dose (10 mg/kg)): effective in alleviating
- body weight ([1]; gavage once a day, 4 weeks): without affecting
- TG accumulation in the liver ([1]; high-dose group (10 mg/kg)): significantly alleviating
- serum ALT levels [1, 2]: significantly reduced
- serum AST levels [1, 2]: significantly reduced
- expression levels of fibrosis-related genes (Asma, Tgfb, Col1a1) ([1]; high/medium-dose (10/3 mg/kg)): significantly downregulated; also recorded: downregulates
- hydroxyproline levels in the liver ([1]; high/medium-dose (10/3 mg/kg), to different degrees): effective in alleviating; also recorded: alleviated
- mRNA expression of liver inflammation-related genes (Tnfa, Il1b, Nlrp3, Ccl2) ([1]; high/medium/low doses (10/3/0.3 mg/kg), to different degrees): significantly downregulated
